Results on 16 compounds are retold here after PubChem BioAssay AID270 (DTP/NCI, 2004).

Where “and” joins values, the source holds several entries; their conditions need not be identical. Identical values can stand only once. Results filed as inconclusive are left out.

This assay concerns BDF1 mice, s.c. Lewis lung carcinoma, T/C %. The assay is described as follows: NCI In Vivo Anticancer Drug Screen. Data for tumor model Lewis Lung Carcinoma (subcutaneous) in B6D2F1 (BDF1) mice. Put shortly: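 Tumor-bearing mice were treated with test compound, and either survival or tumor size was recorded. Values are the treated-group measurement divided by that of the vehicle-treated control group.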

[1] abbreviates: endpoint: median survival time, dose: 50.0 mg/kg/injection, schedule: Q01DX009 (ip), vehicle: saline with Tween-80, higher = longer survival.
[2] abbreviates: endpoint: median survival time, dose: 6.25 mg/kg/injection, schedule: Q01DX009 (ip), vehicle: Klucel (hydroxypropylcellulose) (HPC), higher = longer survival.
Where [3] appears, read: endpoint: median survival time, dose: 12.5 mg/kg/injection, schedule: Q01DX009 (ip), vehicle: Klucel (hydroxypropylcellulose) (HPC), higher = longer survival.
The mark [4] stands for this setting: endpoint: median survival time, dose: 12.5 mg/kg/injection, schedule: Q01DX009 (ip), vehicle: saline with Tween-80, higher = longer survival.
Where [5] appears, read: endpoint: median survival time, dose: 50.0 mg/kg/injection, schedule: Q01DX009 (ip), vehicle: Klucel (hydroxypropylcellulose) (HPC), higher = longer survival.

For `CC1(C)CCC(NC(=O)N(CCF)N=O)CC1`, the T/C (endpoint: median survival time, dose: 6.0 mg/kg/injection, schedule: Q01DX009 (ip), vehicle: saline with Tween-80, higher = longer survival) was 97 % of control; the T/C (endpoint: median survival time, dose: 9.0 mg/kg/injection, schedule: Q01DX009 (ip), vehicle: saline with Tween-80, higher = longer survival) is 113 % of control; the T/C (endpoint: median survival time, dose: 20.0 mg/kg/injection, schedule: Q01DX009 (ip), vehicle: saline with Tween-80, higher = longer survival) was 265 % of control; the T/C (endpoint: median survival time, dose: 30.0 mg/kg/injection, schedule: Q01DX009 (ip), vehicle: saline with Tween-80, higher = longer survival) is 236 % of control; the T/C under setting [1] was 88 % of control.
With `CCCCn1cnc2c(=S)nc[nH]c21`, the T/C (endpoint: mean tumor weight, dose: 15.0 mg/kg/injection, schedule: Q01DX011 (ip), vehicle: water, higher = larger tumour) was 49 % of control; the T/C (endpoint: mean tumor weight, dose: 30.0 mg/kg/injection, schedule: Q01DX011 (ip), vehicle: water, higher = larger tumour) was 60 % of control; the T/C (endpoint: mean tumor weight, dose: 60.0 mg/kg/injection, schedule: Q01DX011 (ip), vehicle: water, higher = larger tumour) is 53 % of control.
Consider `CC1CN=C(C(=O)C(C)C2CCC3C4CC=C5CC(O)CCC5(C)C4CCC23C)C1` (stereo unspecified), for which the T/C (endpoint: mean tumor weight, dose: 100.0 mg/kg/injection, schedule: Q01DX011 (sc), vehicle: steriod suspending solution, higher = larger tumour) was 118 % of control.
Turning to `CCCCCCCCCCCCCCCCCC(=O)NN`, where the note is “endpoint: median survival time, dose: 200.0 mg/kg/injection, schedule: Q01DX009 (ip), vehicle: Klucel (hydroxypropylcellulose) (HPC), higher = longer survival”, the T/C was 120 % of control.
`C=CCNc1ccc(C)cc1`: the T/C (endpoint: mean tumor weight, dose: 12.5 mg/kg/injection, schedule: Q01DX011 (ip), vehicle: carboxymethylcellulose (CMC), higher = larger tumour) is 92 % of control; the T/C (endpoint: mean tumor weight, dose: 25.0 mg/kg/injection, schedule: Q01DX011 (ip), vehicle: carboxymethylcellulose (CMC), higher = larger tumour) is 93 % of control; the T/C (endpoint: mean tumor weight, dose: 50.0 mg/kg/injection, schedule: Q01DX011 (ip), vehicle: carboxymethylcellulose (CMC), higher = larger tumour) is 37 % of control; the T/C (endpoint: mean tumor weight, dose: 100.0 mg/kg/injection, schedule: Q01DX011 (ip), vehicle: carboxymethylcellulose (CMC), higher = larger tumour) is 5 % of control.
In the case of `Cc1cnc(/C=N\NC(N)=S)c2cccc(N)c12`, the T/C by setting is: under setting [2], 112 % of control; (endpoint: median survival time, dose: 6.25 mg/kg/injection, schedule: Q01DX009 (ip), vehicle: saline with Tween-80, higher = longer survival) 106 % of control; under setting [3], 90 % of control; under setting [4], 110 % of control; (endpoint: median survival time, dose: 25.0 mg/kg/injection, schedule: Q01DX009 (ip), vehicle: Klucel (hydroxypropylcellulose) (HPC), higher = longer survival) 86 % of control; (endpoint: median survival time, dose: 25.0 mg/kg/injection, schedule: Q01DX009 (ip), vehicle: saline with Tween-80, higher = longer survival) 117 % of control. Besides, the T/C under setting [5] is 95 % of control.
As to `CN(C)C(=O)N(CCCl)N=O`, the T/C is, setting by setting: (endpoint: median survival time, dose: 6.25 mg/kg/injection, schedule: Q01DX001 (ip), vehicle: water, higher = longer survival) 102 % of control; (endpoint: median survival time, dose: 12.5 mg/kg/injection, schedule: Q01DX001 (ip), vehicle: water, higher = longer survival) 112 % of control.
Consider `OC1c2cc(Cl)ccc2-c2c(Cl)cc(Cl)cc21` (stereo unspecified), for which the T/C by setting is: (endpoint: mean tumor weight, dose: 63.0 mg/kg/injection, schedule: Q01DX011 (ip), vehicle: carboxymethylcellulose (CMC), higher = larger tumour) 64 % of control; (endpoint: mean tumor weight, dose: 125.0 mg/kg/injection, schedule: Q01DX011 (ip), vehicle: carboxymethylcellulose (CMC), higher = larger tumour) 58 % of control; (endpoint: mean tumor weight, dose: 190.0 mg/kg/injection, schedule: Q01DX011 (ip), vehicle: carboxymethylcellulose (CMC), higher = larger tumour) 61 % of control.
On to `CNC(=O)N(C)c1cc(N(C)C)nc(OC)n1`, for which the T/C was 98 % of control (endpoint: median survival time, dose: 5.0 mg/kg/injection, schedule: Q01DX009 (ip), vehicle: Klucel (hydroxypropylcellulose) (HPC), higher = longer survival) and 115 % of control (endpoint: median survival time, dose: 10.0 mg/kg/injection, schedule: Q01DX009 (ip), vehicle: Klucel (hydroxypropylcellulose) (HPC), higher = longer survival).
In the case of `Nc1nc2[nH]c(=O)cnc2c(=O)[nH]1`, the T/C was 97 % of control under setting [4]; 99 % of control under setting [1]; 104 % of control (endpoint: median survival time, dose: 100.0 mg/kg/injection, schedule: Q01DX009 (ip), vehicle: saline, higher = longer survival); 104 % of control (endpoint: median survival time, dose: 200.0 mg/kg/injection, schedule: Q01DX009 (ip), vehicle: saline, higher = longer survival); 110 % of control (endpoint: median survival time, dose: 400.0 mg/kg/injection, schedule: Q01DX009 (ip), vehicle: saline, higher = longer survival).
Consider `C[C@]12C=CC(=O)C=C1CC[C@@H]1[C@@H]2C(=O)C[C@@]2(C)[C@H]1CC[C@]2(O)C(=O)CO`, for which the T/C by setting is: (endpoint: mean tumor weight, dose: 6.25 mg/kg/injection, schedule: Q01DX011 (sc), vehicle: steriod suspending solution, higher = larger tumour) 53 % of control; (endpoint: mean tumor weight, dose: 12.5 mg/kg/injection, schedule: Q01DX011 (sc), vehicle: steriod suspending solution, higher = larger tumour) 36 % of control; (endpoint: mean tumor weight, dose: 25.0 mg/kg/injection, schedule: Q01DX011 (sc), vehicle: steriod suspending solution, higher = larger tumour) 22 % of control; (endpoint: mean tumor weight, dose: 50.0 mg/kg/injection, schedule: Q01DX011 (sc), vehicle: steriod suspending solution, higher = larger tumour) 25 % of control; under setting [5], 88 % of control; under setting [1], 102 % of control and 122 % of control. Further, the T/C runs as follows: (endpoint: median survival time, dose: 100.0 mg/kg/injection, schedule: Q01DX009 (ip), vehicle: Klucel (hydroxypropylcellulose) (HPC), higher = longer survival) 107 % of control; (endpoint: median tumor weight (est.), dose: 50.0 mg/kg/injection, schedule: Q01DX009 (ip), vehicle: saline with Tween-80, higher = larger tumour) 70 % of control.
With `COc1cc(NS(C)(=O)=O)ccc1Nc1c2ccccc2nc2ccccc12`, the T/C reads like this: (endpoint: median survival time, dose: 0.13 mg/kg/injection, schedule: Q01DX009 (ip), vehicle: other, higher = longer survival) 117 % of control; (endpoint: median survival time, dose: 0.5 mg/kg/injection, schedule: Q01DX009 (ip), vehicle: other, higher = longer survival) 118 % of control; (endpoint: median survival time, dose: 0.78 mg/kg/injection, schedule: Q01DX009 (ip), vehicle: saline, higher = longer survival) 96 % of control; (endpoint: median survival time, dose: 1.25 mg/kg/injection, schedule: Q01DX011 (ip), vehicle: Klucel (hydroxypropylcellulose) (HPC), higher = longer survival) 91 % of control; (endpoint: median survival time, dose: 1.56 mg/kg/injection, schedule: Q01DX009 (ip), vehicle: saline, higher = longer survival) 100 % of control; (endpoint: median survival time, dose: 2.5 mg/kg/injection, schedule: Q01DX011 (ip), vehicle: Klucel (hydroxypropylcellulose) (HPC), higher = longer survival) 96 % of control. The T/C (endpoint: median survival time, dose: 3.12 mg/kg/injection, schedule: Q01DX009 (ip), vehicle: Klucel (hydroxypropylcellulose) (HPC), higher = longer survival) was 118 % of control; the T/C (endpoint: median survival time, dose: 3.13 mg/kg/injection, schedule: Q01DX009 (ip), vehicle: saline, higher = longer survival) was 103 % of control and 107 % of control; the T/C under setting [2] is 115 % of control; the T/C under setting [3] was 214 % of control; the T/C (endpoint: median tumor weight (est.), dose: 1.25 mg/kg/injection, schedule: Q01DX011 (ip), vehicle: Klucel (hydroxypropylcellulose) (HPC), higher = larger tumour) is 88 % of control; the T/C (endpoint: median tumor weight (est.), dose: 2.5 mg/kg/injection, schedule: Q01DX011 (ip), vehicle: Klucel (hydroxypropylcellulose) (HPC), higher = larger tumour) is 110 % of control. In addition, the T/C (endpoint: median tumor weight (est.), dose: 5.0 mg/kg/injection, schedule: Q01DX011 (ip), vehicle: Klucel (hydroxypropylcellulose) (HPC), higher = larger tumour) is 504 % of control.
As for `O=C1CN=C(c2ccc[nH]2)c2cc(Cl)ccc2N1`, the T/C reads like this: (endpoint: mean tumor weight, dose: 40.0 mg/kg/injection, schedule: Q01DX011 (ip), vehicle: other, higher = larger tumour) 112 % of control; (endpoint: mean tumor weight, dose: 120.0 mg/kg/injection, schedule: Q01DX011 (ip), vehicle: other, higher = larger tumour) 73 % of control and 90 % of control.
Regarding `O=P(Oc1ccccc1)(Oc1ccccc1)c1ccccc1`, the T/C is, setting by setting: (endpoint: mean tumor weight, dose: 133.0 mg/kg/injection, schedule: Q01DX011 (ip), vehicle: other, higher = larger tumour) 75 % of control; (endpoint: mean tumor weight, dose: 200.0 mg/kg/injection, schedule: Q01DX011 (ip), vehicle: other, higher = larger tumour) 91 % of control.
Take `C1CC[N-]CC1.C1CC[N-]CC1.C1CC[N-]CC1.[Cl][Rh]([Cl])[Cl]`: the T/C is, setting by setting: (endpoint: median survival time, dose: 4.0 mg/kg/injection, schedule: Q01DX009 (ip), vehicle: saline, higher = longer survival) 96 % of control; (endpoint: median survival time, dose: 8.0 mg/kg/injection, schedule: Q01DX009 (ip), vehicle: saline, higher = longer survival) 93 % of control; (endpoint: median survival time, dose: 16.0 mg/kg/injection, schedule: Q01DX009 (ip), vehicle: saline, higher = longer survival) 103 % of control; (endpoint: median survival time, dose: 32.0 mg/kg/injection, schedule: Q01DX009 (ip), vehicle: saline, higher = longer survival) 98 % of control; (endpoint: median survival time, dose: 64.0 mg/kg/injection, schedule: Q01DX009 (ip), vehicle: saline, higher = longer survival) 92 % of control.
In the case of `c1ccc(N/N=C2/CCN3CCCc4cccc2c43)cc1`, the T/C is 105 % of control (endpoint: median survival time, dose: 12.5 mg/kg/injection, schedule: Q04DX003 (ip), vehicle: DMSO, higher = longer survival); 87 % of control (endpoint: median survival time, dose: 25.0 mg/kg/injection, schedule: Q04DX003 (ip), vehicle: DMSO, higher = longer survival); 109 % of control (endpoint: median survival time, dose: 50.0 mg/kg/injection, schedule: Q04DX003 (ip), vehicle: DMSO, higher = longer survival).
